Laboratory results published in the supplement of paper PMC10307832.

Assays:
Assay in all cases: relative viability (nuclei count vs DMSO), 5 days (fraction); higher = more cells survive
GSK-J4 + Decitabine = compound: CCOC(=O)CCNc1cc(N2CCc3ccccc3CC2)nc(-c2ccccn2)n1 [GSK-J4] + Nc1ncn([C@H]2C[C@H](O)[C@@H](CO)O2)c(=O)n1 [Decitabine] (partner 2 µM)
Procedure, shortened: (§1)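 Values are medians from duplicate plates. Each reflects relative viability, defined as the nuclei count of treated wells over that of vehicle wells. Lung cancer cell lines in 1536-well plates were pin-tool dosed one day after seeding with one drug alone or with a fixed anchor-drug dose plus five library-drug doses (not always all listed) in √10 steps, then fixed, stained and imaged at 4× after 5 days.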

GSK-J4 + Pictilisib = compound: CCOC(=O)CCNc1cc(N2CCc3ccccc3CC2)nc(-c2ccccn2)n1 [GSK-J4] + CS(=O)(=O)N1CCN(Cc2cc3nc(-c4cccc5[nH]ncc45)nc(N4CCOCC4)c3s2)CC1 [Pictilisib] (partner 1 µM)
Procedure, shortened: as §1

AZ3146 + AZD7762 = compound: CN1CCC(CC1)OC2=CC(=C(C=C2)NC3=NC=C4C(=N3)N(C(=O)N4C)C5CCCC5)OC [AZ3146] + NC(=O)Nc1cc(-c2cccc(F)c2)sc1C(=O)N[C@H]1CCCNC1 [AZD7762] (partner 0.2 µM)
Procedure, shortened: as §1

AZ3146 + Trametinib = compound: CN1CCC(CC1)OC2=CC(=C(C=C2)NC3=NC=C4C(=N3)N(C(=O)N4C)C5CCCC5)OC [AZ3146] + CC(=O)Nc1cccc(-n2c(=O)n(C3CC3)c(=O)c3c(Nc4ccc(I)cc4F)n(C)c(=O)c(C)c32)c1 [Trametinib] (partner 0.02 µM)
Procedure, shortened: as §1

Cell Line | relative viability (GSK-J4 + Decitabine; first compound 0.5 µM) | relative viability (GSK-J4 + Decitabine; first compound 1.581 µM) | relative viability (GSK-J4 + Decitabine; first compound 5 µM) | relative viability (GSK-J4 + Decitabine; first compound 15.81 µM) | relative viability (GSK-J4 + Decitabine; first compound 50 µM) | relative viability (GSK-J4 + Pictilisib; first compound 0.5 µM) | relative viability (GSK-J4 + Pictilisib; first compound 1.581 µM) | relative viability (GSK-J4 + Pictilisib; first compound 5 µM) | relative viability (GSK-J4 + Pictilisib; first compound 15.81 µM) | relative viability (GSK-J4 + Pictilisib; first compound 50 µM) | relative viability (AZ3146 + AZD7762; first compound 0.08 µM) | relative viability (AZ3146 + AZD7762; first compound 0.253 µM) | relative viability (AZ3146 + AZD7762; first compound 0.8 µM) | relative viability (AZ3146 + AZD7762; first compound 2.53 µM) | relative viability (AZ3146 + AZD7762; first compound 8 µM) | relative viability (AZ3146 + Trametinib; first compound 0.08 µM) | relative viability (AZ3146 + Trametinib; first compound 0.253 µM) | relative viability (AZ3146 + Trametinib; first compound 0.8 µM) | relative viability (AZ3146 + Trametinib; first compound 2.53 µM) | relative viability (AZ3146 + Trametinib; first compound 8 µM)
NCI-H3122 | 0.476 | 0.459 | 0.454 | 0.345 | 0.415 | 0.547 | 0.63 | 0.785 | 0.557 | 0.382 | 1.01 | 0.933 | 0.966 | 1.06 | 0.973 | 0.245 | 0.228 | 0.224 | 0.204 | 0.251
PC-3 [JPC-3] | 0.883 | 0.735 | 0.801 | 0.876 | 0.781 | 0.644 | 0.647 | 0.757 | 0.742 | 0.671 | 0.734 |  | 0.797 | 0.813 | 0.754 | 0.709 |  | 0.596 | 0.728 | 0.626
PC-14 | 0.231 | 0.218 | 0.259 | 0.232 | 0.268 | 0.642 | 0.672 | 0.678 | 0.714 | 0.615 | 0.343 | 0.355 | 0.415 | 0.382 | 0.294 | 0.728 | 0.821 | 0.818 | 0.796 | 0.694
RERF-LC-KJ | 0.624 | 0.605 | 0.602 | 0.654 | 0.417 | 0.465 | 0.459 | 0.639 | 0.635 | 0.434 | 0.879 | 0.61 | 0.883 | 0.976 | 0.972 | 0.848 | 0.982 | 0.796 | 0.911 | 0.769
